Entries after “also recorded” stand apart in the source; their conditions may differ.
Tests used:
[1] = system: oxazolone induced ear inflammation in mice; test: Oxazolone induced mouse ear oedema assay; format: in vivo
Method: This screening method is commonly employed for screening and evaluation of anti-inflammatory drugs, in particular with respect to the inflammation seen in contact dermatitis. Betamethasone-17 valerate was used as the positive control. […] Betamethason was administered topically in quantities of 20 μg/ear. Betamethason was applied in the commercial form Celeston valerate® 0.1%. All groups were immunised with 20 μl oxazolone, 1.6% in ethanol 96% (w/v) on the left and the right ear. The ear thickness of all mice on both the left and right side was measured with an electronic measuring gauge. All groups were challenged with 20 μl oxazolone (1.6% in ethanol 96% (w/v)) on the left ear and the right ear. Vehicle (acetone) or test article solutions were administered 20 minutes before and 20 minutes after oxazolone challenge. 24 hours after oxazolone challenge the ear thickness of all mice was measured with an electronic measuring gauge. Mean thickness of the ears and standard deviations were calculated. Ear swelling was calculated as the difference between the ear thickness day 7 and day 8. […] Differences in ear swelling between the vehicle treated group and the other groups were tested for significance employing a non-parametric statistical method of analysis, the Mann-Whitney U test. The required level of significance was p<0.05. […] Both test articles were applied in a dose of 500 μg/ear and dissolved in 96% ethanol. Betamethason, as the positive control was administered topically in quantities of 20 μg/ear.

Phosphodiesterase PDE IV = test: enzyme assay, Phosphodiesterase PDE IV (MDS Pharma Service No 154000); format: biochemical; conditions: in words, comparison
[2] = biological target: T1, Protein Tyrosine Kinase, SYK (Homo sapiens, UniProt P43405); test: enzyme assay, Protein Tyrosine Kinase SYK (MDS Pharma Service No 155761); format: biochemical; conditions: in words, comparison
T1 construct: purchased MDS Pharma Services (printed once as 'MSD Pharma Services') 155761
Method: (§1) The enzyme assays were conducted by MSD Pharma Services.

[3] = biological target: T2, Protein Tyrosine Kinase, ZA70 (ZAP-70) (Homo sapiens, UniProt P43403); test: enzyme assay, Protein Tyrosine Kinase ZA70 (ZAP-70) (MDS Pharma Service No 155987); format: biochemical; conditions: in words, comparison
T2 construct: purchased MDS Pharma Services (printed once as 'MSD Pharma Services') 155987
T2 sequence (P43403 1-619): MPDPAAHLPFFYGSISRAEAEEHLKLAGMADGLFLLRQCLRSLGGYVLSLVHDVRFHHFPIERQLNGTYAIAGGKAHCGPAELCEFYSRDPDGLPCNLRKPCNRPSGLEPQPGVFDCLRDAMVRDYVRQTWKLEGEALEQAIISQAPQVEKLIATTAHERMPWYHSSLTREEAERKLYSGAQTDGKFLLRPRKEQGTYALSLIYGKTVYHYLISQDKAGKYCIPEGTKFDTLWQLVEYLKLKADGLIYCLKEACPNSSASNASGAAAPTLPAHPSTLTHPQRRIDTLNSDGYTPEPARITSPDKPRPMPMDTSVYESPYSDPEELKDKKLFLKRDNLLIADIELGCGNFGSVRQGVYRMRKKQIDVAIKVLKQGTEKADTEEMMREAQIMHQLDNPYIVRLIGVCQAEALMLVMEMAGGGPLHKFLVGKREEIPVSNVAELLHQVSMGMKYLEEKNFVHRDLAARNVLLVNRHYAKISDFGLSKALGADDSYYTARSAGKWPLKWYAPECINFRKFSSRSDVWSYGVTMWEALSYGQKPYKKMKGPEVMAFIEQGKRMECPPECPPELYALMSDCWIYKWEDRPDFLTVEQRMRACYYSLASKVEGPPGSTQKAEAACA
Method: as §1

skin = conditions: reported in the literature; cited from earlier work
[4] = system: Albino guinea pigs of Dunkin-Hartley strain; conditions: guinea pig, in vivo
Method: Test for skin sensitization is carried out according to the Magnusson and Kligman method (J. Invest. Dermatol. 1969. 52, 268-276) and in accordance with O.E.C.D. Guideline No. 406 of Jul. 17th, 1992, and the test method B.6 of the 96/54 E.E.C Directive.
Albino guinea pigs of Dunkin-Hartley strain were exposed to the test item after an acclimatisation period of at least five days.
The Maximum Non Necrotizing Concentration (M.N.N.C.) was determined by injecting by intradermal route the following concentrations: 2.5%, 1.25%, 0.625%, 0.3125%, 0.1562% and 0.078% diluted in physiological saline solution.
Pre-Maximum Non Irritant Concentration (pre-M.N.I.C.) was determined by application of the test item under an occlusive dressing during 24 hours, at the following concentrations: 2.5%, 1.25%, 0.625%, 0.3125% diluted in physiological saline solution.
Maximum Non Irritant Concentration (M.N.I.C.) was determined by initially establishing an induction phase by intradermal injection with a physiological saline solution and by topical application of distilled water followed by a 18-day rest phase. In the challenge phase where the test item is under occlusive dressing for 24 hours, the test item was applied to the skin of the Albino guinea pigs at the following concentrations: 2.5%, 1.25%, 0.625%, 0.3125% diluted in physiological saline solution.

undamaged skin area = test: Acute dermal irritation; format: in vivo
Method: The sample was applied at a dose of 0.5 mL, on an undamaged skin area of the right flank of each animal. The patch was secured in position with a strip of surgical adhesive tape.
On the left flank an untreated area served as the control.
The skin reactions were evaluated after 1 hour and then after 24, 48 and 72 hours following removal of the patch according to the following grading scale:
Erythema (0: No erythema, 1: Slight(barelyperceptible)erythema, 2: Definite erythema, 3: Moderate to severe erythema, 4: Severe erythema (purpie) with formation of eschars (deep lesions) preventing erythema from being grading).
Oedema (0: No oedema, 1: Very slight (barely perceptible) oedema, 2: Slight oedema (contour clearly defined), 3: Moderate oedema (thickness), 4: Severe oedema (thickness greater than 1 mm, surface larger than zone of application)

[5] = system: moderate to severe inflammation following treatment with cryotherapy; conditions: topically applied; cited from earlier work
[6] = system: experimental contact dermatitis; conditions: topically applied; cited from earlier work

CCCCC(=O)O[C@]1(C(=O)CO)[C@@H](C)C[C@H]2[C@@H]3CCC4=CC(=O)C=C[C@]4(C)[C@@]3(F)[C@@H](O)C[C@@]21C [Betamethasone 17-valerate]
% inhibition of ear swelling ([1]; 20 μg/ear topical (Celeston valerate 0.1%), 24 hours after challenge): 66%

CCCCOc1ccc(CC(=O)NO)cc1 [Bufexamac]
inhibitory effect on the PDE-IV enzyme (Phosphodiesterase PDE IV): inhibitory effect
inhibitory effect on Protein Tyrosine Kinase SYK [2]: only exhibits inhibitory effect on the PDE-IV enzyme
inhibitory effect on Protein Tyrosine Kinase ZAP-70 [3]: only exhibits inhibitory effect on the PDE-IV enzyme
cutaneous side effects (skin): cause contact allergy; also recorded: major contact allergens

O=C(O)Cc1ccccc1Nc1c(Cl)cccc1Cl [Diclofenac]
cutaneous side effects (skin): irritant-type contact dermatitis may develop

CC(C(=O)O)c1cccc(C(=O)c2ccccc2)c1 (stereo not shown) [Ketoprofen]
cutaneous side effects (skin): major contact allergens

O=C(O)CCc1nc(-c2ccccc2)c(-c2ccccc2)o1 [Monoethanolamine Oxaprozin]
inhibition of ear swelling (conclusion in words) ([1]; 250-1000 μg/ear topical): dose dependent and highly significant inhibition
sensitization, macroscopic cutaneous reactions in the challenge phase [4]: No macroscopic cutaneous reactions attributable to allergy

O=C(O)CCc1nc(-c2ccccc2)c(-c2ccccc2)o1 [Oxaprozin, 4,5-diphenyl-2-oxazole-propionic acid]
inhibition of the formation of ear oedema ([1]; Example 7, 500 μg/ear dissolved in 96% ethanol): statistically significant inhibition
cutaneous reactions (erythema and oedema) (undamaged skin area; 2.5% by weight in water (monoethanolamine salt), 0.5 mL, 1, 24, 48 and 72 hours): no cutaneous reactions
erythema on the treated area (undamaged skin area; 5% by weight in water (monoethanolamine salt), 0.5 mL, reading time 1 hour): slight erythema
reversibility of the erythema (undamaged skin area; 5% by weight, between the 2nd and the 3rd day of the test): totally reversible

CC(=O)Oc1ccccc1C(=O)O [aspirin]
cutaneous side effects (skin): may induce urticarial reactions

CCC(=O)O[C@]1(C(=O)CCl)[C@@H](C)C[C@H]2[C@@H]3CCC4=CC(=O)C=C[C@]4(C)[C@@]3(F)[C@@H](O)C[C@@]21C [clobetasol propionate]
relieving the erythema and oedema [5]: proved to have effect

COc1ccc2c(c1)c(CC(=O)O)c(C)n2C(=O)c1ccc(Cl)cc1 [indomethacin]
response in an animal model of contact dermatitis [6]: has been shown to respond
relieving the erythema and oedema [5]: poor effect
cutaneous side effects (skin): may induce urticarial reactions

CN1C(C(=O)Nc2ccccn2)=C(O)c2ccccc2S1(=O)=O [piroxicam]
cutaneous side effects (skin): phototoxic or photoallergic dermatitis

Source: patent US20060251689A1, “Treatment or prevention of pruritus” (Astion Development A/S, priority 2005, published 2006)
